Test system: γ-secretase
Assay: Cellular γ-secretase assay (inhibition of Aβ42 secretion)
Type: cell-based
Details: human neuroglioma H4 cells overexpressing human APP, 22 hrs incubation
Protocol: Human neuroglioma H4 cells overexpressing human APP were plated at 30,000 cells/well/[…] in 96-well plates in IMDM media containing 10% FCS, […] Hygromycin B and incubated for 2 h at 37° C., 5% CO2 prior to adding test compounds.
Compounds for testing were dissolved in 100% Me2SO yielding in a 10 mM stock solution. Typically […] of these solutions were further diluted in 1000 μl of IMDM media (w/o FCS). Subsequent 1:1 dilutions gave a ten point dose response curve. 100 μl of each dilution was added to the cells in 96-well plates. Appropriate controls using vehicle only and reference compound were applied to this assay. The final concentration of Me2S0 was 0.4%.
After incubation for 22 hrs at 37° C., 5% CO2, 50 μl supernatant was transferred into round-bottom 96-well polypropylene plates for detection of Aβ42. 50 μl assay buffer (50 mM Tris/Cl, pH 7.4, 60 mM NaCl, 0.5% BSA, 1% TWEEN 20) was added to the wells followed by the addition of 100 μl of detection antibody (ruthenylated BAP15 0.0625 μg/ml in assay buffer). 50 μl of a premix of capture antibody (biotinylated 6E10 antibody, 1 μg/ml) and Steptavidin-coated magnetic beads (Dynal M-280, 0.125 mg/ml) were preincubated for 1 hr at room temperature before adding the assay plates. Assay plates were incubated on a shaker for 3 hrs at room temperature and finally read in the Bioveris M8 Analyser according to the manufacturer's instructions (Bioveris).
IC50 values for inhibition of Aβ42 secretion were calculated by nonlinear regression fit analysis using XLfit 4.0 software (IDBS).

SMILES	EC50 [nM]
COc1cc(Nc2nc3n(n2)CCCC3c2ccc(F)cc2)ccc1-n1cnc(C)c1 (racemic) [Example 1, [8-(4-Fluoro-phenyl)-5,6,7,8-tetrahydro-[1,2,4]triazolo[1,5-a]pyridin-2-yl]-[3-methoxy-4-(4-methyl-imidazol-1-yl)-phenyl]-amine]	330
COc1cc(Nc2nc3n(n2)CCCC3c2ccc(F)cc2)ccc1-n1cnc(C)c1 (single isomer, unassigned) [Example 51]	440
COc1cc(Nc2nc3n(n2)CCCC3c2ccc(F)cc2)ccc1-n1cnc(C)c1 (single isomer, unassigned) [Example 52]	280
COc1cc(Nc2nc3n(n2)C(c2ccc(F)cc2)CCC3)ccc1-n1cnc(C)c1 (centres unmarked) [Example 2, [5-(4-Fluoro-phenyl)-5,6,7,8-tetrahydro-[1,2,4]triazolo[1,5-a]pyridin-2-yl]-[3-methoxy-4-(4-methyl-imidazol-1-yl)-phenyl]-amine]	320
COc1cccn2nc(Nc3ccc(-n4cnc(C)c4)c(C#N)c3)nc12 [Example 3, 5-(8-Methoxy-[1,2,4]triazolo[1,5-a]pyridin-2-ylamino)-2-(4-methyl-imidazol-1-yl)-benzonitrile]	3350
CCCc1nc(C)cc2nc(Nc3ccc(-n4cnc(C)c4)c(C#N)c3)nn12 [Example 4, 2-(4-Methyl-imidazol-1-yl)-5-(7-methyl-5-propyl-[1,2,4]triazolo[1,5-c]pyrimidin-2-ylamino)-benzonitrile]	1280
COc1ccc(-c2ccccc2)n2nc(Nc3ccc(-n4cnc(C)c4)c(C#N)c3)nc12 [Example 5, 5-(8-Methoxy-5-phenyl-[1,2,4]triazolo[1,5-a]pyridin-2-ylamino)-2-(4-methyl-imidazol-1-yl)-benzonitrile]	90
COc1cc(Nc2nc3cccc(-c4ccccc4)n3n2)ccc1-n1cnc(C)c1 [Example 6, [3-Methoxy-4-(4-methyl-imidazol-1-yl)-phenyl]-(5-phenyl-[1,2,4]triazolo[1,5-a]pyridin-2-yl)-amine]	120
COc1cc(Nc2nc3c(OC)cccn3n2)ccc1-n1cnc(C)c1 [Example 7, [3-Methoxy-4-(4-methyl-imidazol-1-yl)-phenyl]-(8-methoxy-[1,2,4]triazolo[1,5-a]pyridin-2-yl)-amine]	930
COc1cc(Nc2nc3cccc(-c4ccc(F)cc4)n3n2)ccc1-n1cnc(C)c1 [Example 8, [5-(4-Fluoro-phenyl)-[1,2,4]triazolo[1,5-a]pyridin-2-yl]-[3-methoxy-4-(4-methyl-imidazol-1-yl)-phenyl]-amine]	50
COc1cc(Nc2nc3cncc(-c4ccc(F)cc4)n3n2)ccc1-n1cnc(C)c1 [Example 9, [5-(4-Fluoro-phenyl)-[1,2,4]triazolo[1,5-a]pyrazin-2-yl]-[3-methoxy-4-(4-methyl-imidazol-1-yl)-phenyl]-amine]	200
COc1cc(Nc2nc3c(-c4ccc(F)cc4)cccn3n2)ccc1-n1cnc(C)c1 [Example 10, [8-(4-Fluoro-phenyl)-[1,2,4]triazolo[1,5-a]pyridin-2-yl]-[3-methoxy-4-(4-methyl-imidazol-1-yl)-phenyl]-amine]	60
COc1cc(Nc2nc3c(-c4ccc(F)cc4)nccn3n2)ccc1-n1cnc(C)c1 [Example 11, [8-(4-Fluoro-phenyl)-[1,2,4]triazolo[1,5-a]pyrazin-2-yl]-[3-methoxy-4-(4-methyl-imidazol-1-yl)-phenyl]-amine]	580
COc1cc(Nc2nc3cccc(N4CCCC4)n3n2)ccc1-n1cnc(C)c1 [Example 12, [3-Methoxy-4-(4-methyl-imidazol-1-yl)-phenyl]-(5-pyrrolidin-1-yl-[1,2,4]triazolo[1,5-a]pyridin-2-yl)-amine]	400
COc1cc(Nc2nc3cncc(-c4ccccc4)n3n2)ccc1-n1cnc(C)c1 [Example 13, [3-Methoxy-4-(4-methyl-imidazol-1-yl)-phenyl]-(5-phenyl-[1,2,4]triazolo[1,5-a]pyrazin-2-yl)-amine]	100
COc1cc(Nc2nc3cc(C)cc(C)n3n2)ccc1-n1cnc(C)c1 [Example 14, (5,7-Dimethyl-[1,2,4]triazolo[1,5-a]pyridin-2-yl)-[3-methoxy-4-(4-methyl-imidazol-1-yl)-phenyl]-amine]	679

SMILES	EC50 [nM]
COc1cc(Nc2nc3nc(C)cc(C(C)(C)C)n3n2)ccc1-n1cnc(C)c1 [Example 15, (7-tert-Butyl-5-methyl-[1,2,4]triazolo[1,5-a]pyrimidin-2-yl)-[3-methoxy-4-(4-methyl-imidazol-1-yl)-phenyl]-amine acetate]	572
CCCc1cccc2nc(Nc3ccc(-n4cnc(C)c4)c(OC)c3)nn12 [Example 16, [3-Methoxy-4-(4-methyl-imidazol-1-yl)-phenyl]-(5-propyl-[1,2,4]triazolo[1,5-a]pyridin-2-yl)-amine]	197
COc1cc(Nc2nc3cccc(C(F)(F)F)n3n2)ccc1-n1cnc(C)c1 [Example 17, [3-Methoxy-4-(4-methyl-imidazol-1-yl)-phenyl]-(5-trifluoromethyl-[1,2,4]triazolo[1,5-a]pyridin-2-yl)-amine]	285
COc1cc(Nc2nc3nc(C)cc(-c4ccccc4)n3n2)ccc1-n1cnc(C)c1 [Example 18, [3-Methoxy-4-(4-methyl-imidazol-1-yl)-phenyl]-(5-methyl-7-phenyl-[1,2,4]triazolo[1,5-a]pyrimidin-2-yl)-amine acetate]	129
COC(=O)c1cc(-c2cccc(OC(F)F)c2)n2nc(Nc3ccc(-n4cnc(C)c4)c(OC)c3)nc2n1 [Example 19, 7-(3-Difluoromethoxy-phenyl)-2-[3-methoxy-4-(4-methyl-imidazol-1-yl)-phenylamino]-[1,2,4]triazolo[1,5-a]pyrimidine-5-carboxylic acid methyl ester acetate]	953
COc1cc(Nc2nc3nc(C(F)(F)F)cc(-c4ccc(Cl)cc4)n3n2)ccc1-n1cnc(C)c1 [Example 20, [7-(4-Chloro-phenyl)-5-trifluoromethyl-[1,2,4]triazolo[1,5-a]pyrimidin-2-yl]-[3-methoxy-4-(4-methyl-imidazol-1-yl)-phenyl]-amine acetate]	107
COc1cc(Nc2nc3nc4c(c(-c5ccccc5)n3n2)CCCC4)ccc1-n1cnc(C)c1 [Example 21, [3-Methoxy-4-(4-methyl-imidazol-1-yl)-phenyl]-(9-phenyl-5,6,7,8-tetrahydro-[1,2,4]triazolo[5,1-b]quinazolin-2-yl)-amine acetate]	201
COc1cc(Nc2nc3c(OC)ccc(-c4ccc(F)cc4)n3n2)ccc1-n1cnc(C)c1 [Example 22, [5-(4-Fluoro-phenyl)-8-methoxy-[1,2,4]triazolo[1,5-a]pyridin-2-yl]-[3-methoxy-4-(4-methyl-imidazol-1-yl)-phenyl]-amine]	74
COc1cc(Nc2nc3nccc(-c4ccc(OC(F)(F)F)cc4)n3n2)ccc1-n1cnc(C)c1 [Example 23, [3-Methoxy-4-(4-methyl-imidazol-1-yl)-phenyl]-[7-(4-trifluoromethoxy-phenyl)-[1,2,4]triazolo[1,5-a]pyrimidin-2-yl]-amine acetate]	191
COc1cc(Nc2nc3nc(C(F)(F)F)cc(-c4ccco4)n3n2)ccc1-n1cnc(C)c1 [Example 24, (7-Furan-2-yl-5-trifluoromethyl-[1,2,4]triazolo[1,5-a]pyrimidin-2-yl)-[3-methoxy-4-(4-methyl-imidazol-1-yl)-phenyl]-amine]	592
COc1cc(Nc2nc3nc(C(C)C)cc(C(C)C)n3n2)ccc1-n1cnc(C)c1 [Example 25, (5,7-Diisopropyl-[1,2,4]triazolo[1,5-a]pyrimidin-2-yl)-[3-methoxy-4-(4-methyl-imidazol-1-yl)-phenyl]-amine acetate]	601
COc1cc(Nc2nc3nc(C(F)(F)F)cc(C(F)(F)F)n3n2)ccc1-n1cnc(C)c1 [Example 26, (5,7-Bis-trifluoromethyl-[1,2,4]triazolo[1,5-a]pyrimidin-2-yl)-[3-methoxy-4-(4-methyl-imidazol-1-yl)-phenyl]-amine]	312
COCc1cnc(-c2ccccc2)n2nc(Nc3ccc(-n4cnc(C)c4)c(OC)c3)nc12 [Example 27, [3-Methoxy-4-(4-methyl-imidazol-1-yl)-phenyl]-(8-methoxymethyl-5-phenyl-[1,2,4]triazolo[1,5-c]pyrimidin-2-yl)-amine]	742
COCc1cnc(C2CCCCC2)n2nc(Nc3ccc(-n4cnc(C)c4)c(OC)c3)nc12 [Example 28, (5-Cyclohexyl-8-methoxymethyl-[1,2,4]triazolo[1,5-c]pyrimidin-2-yl)-[3-methoxy-4-(4-methyl-imidazol-1-yl)-phenyl]-amine]	1490
COc1cc(Nc2nc3c(CN4CCOCC4)cnc(-c4ccccc4)n3n2)ccc1-n1cnc(C)c1 [Example 29, [3-Methoxy-4-(4-methyl-imidazol-1-yl)-phenyl]-(8-morpholin-4-ylmethyl-5-phenyl-[1,2,4]triazolo[1,5-c]pyrimidin-2-yl)-amine]	1270
COc1cc(Nc2nc3cccc(N4CCOCC4)n3n2)ccc1-n1cnc(C)c1 [Example 30, [3-Methoxy-4-(4-methyl-imidazol-1-yl)-phenyl]-(5-morpholin-4-yl-[1,2,4]triazolo[1,5-a]pyridin-2-yl)-amine]	247
